Measurements reported in patent US8916702B2 (priority 2012, dated 2014).
Read-outs that look alike come from different tables or passages of the source.

Test system: HCV pseudoparticles (genotype 1a HCV E1 and E2 envelope, H77C isolate)
Test: microbe, parasite or virus in culture
Format: cell-based
Settings: Hepatitis C virus
[1] = Huh-7, 48 h, read-out: Activity (EC50 class), HCV pseudoparticles, Huh7 cells, luciferase 2 days after infection, average of duplicates
[2] = Huh-7, 48 h, read-out: Activity (EC50 class), HCV pseudoparticle infection of Huh7 cells, luciferase 2 days after infection, EC50 expressed as class A/B
[3] = Huh-7, read-out: Activity (EC50 class), HCV pseudoparticles (genotype 1a, H77C) in Huh7 cells, EC50 expressed as class A/B

Row | Compound | EC50 [2] [nM] | EC50 [3] [nM] | further results
1 | COC(=O)[C@H](CNC(=O)C(=O)Nc1cccc(-c2cccnc2)c1)NC(=O)c1ccc(Nc2nc(NC3(c4ccc(Cl)cc4)CC3)nc(OCC(F)(F)F)n2)cc1 [Compound 3728] | – | – | EC50 [1]: 0.01 to 10 nM
2 | COc1ccccc1NC(=O)C(=O)NCC[C@H](NC(=O)c1ccc(Nc2nc(NC3(c4ccc(Cl)cc4)CC3)nc(OCC(F)(F)F)n2)cc1)C(=O)O [Compound 1276] | 0.01 to 10 | – | –
3 | CN1CCN(CC2(CNC(=O)C(=O)NCC[C@H](NC(=O)c3ccc(Nc4nc(NC5(c6ccc(Cl)cc6)CC5)nc(OCC(F)(F)F)n4)cc3)C(=O)O)CC2)CC1 [Compound 1432] | 0.01 to 10 | – | –
4 | Cc1ccc(NC(=O)C(=O)NCC(C)CNC(=O)c2ccc(Nc3nc(NC4(c5ccc(Cl)cc5)CC4)nc(OCC(F)(F)F)n3)cc2)cc1 (stereo not shown) [Compound 3353] | – | 0.01 to 10 | –
5 | CC(O)N1CCN(c2ccc(NC(=O)C(=O)NC[C@H](NC(=O)c3ccc(Nc4nc(NC5(c6ccc(Cl)cc6)CC5)nc(OCC(F)(F)F)n4)cc3)C(=O)O)cc2)CC1 (stereo partly shown) [Compound 3271] | – | 0.01 to 10 | EC50 (Huh-7, 48 h, HCV pseudoparticles (genotype 1a, H77C) in Huh7 cells, average of duplicate, luciferase 2 days after infection): 1.38 nM
6 | O=C(NCC[C@H](NC(=O)c1ccc(Nc2nc(NC3(c4ccc(Cl)cc4)CC3)nc(OCC(F)(F)F)n2)cc1)C(=O)O)C(=O)NCC1(CN2CCOCC2)CC1 [Compound 1426] | 0.01 to 10 | – | –
7 | NC(=O)C(=O)NC[C@H](NC(=O)c1ccc(Nc2nc(NC3(c4ccc(Cl)cc4)CC3)nc(OCC(F)(F)F)n2)cc1)C(=O)O [Compound 1005, (S)-3-(2-amino-2-oxoacetamido)-2-(4-(4-(1-(4-chlorophenyl)cyclopropylamino)-6-(2,2,2-trifluoroethoxy)-1,3,5-triazin-2-ylamino)benzamido)propanoic acid] | 0.01 to 10 | – | –
8 | C=C(C)c1ccccc1NC(=O)C(=O)NCC(C)(C)CNC(=O)c1ccc(Nc2nc(NC3(c4ccc(Cl)cc4)CC3)nc(OCC(F)(F)F)n2)cc1 [Compound 3140] | – | 0.01 to 10 | –
9 | CC(C)(CNC(=O)C(=O)Nc1cccc(C(=O)N2CCCCC2)c1)CNC(=O)c1ccc(Nc2nc(NC3(c4ccc(Cl)cc4)CC3)nc(OCC(F)(F)F)n2)cc1 [Compound 1574] | 0.01 to 10 | – | –
10 | CC(C)CNC(=O)C(=O)NCC(C)CNC(=O)c1ccc(Nc2nc(NC3(c4ccc(Cl)cc4)CC3)nc(OCC(F)(F)F)n2)cc1 (stereo not shown) [Compound 3476] | – | 0.01 to 10 | –
11 | O=C(NCC[C@H](NC(=O)c1ccc(Nc2nc(NC3(c4ccc(Cl)cc4)CC3)nc(OCC(F)(F)F)n2)cc1)C(=O)O)C(=O)Nc1cccc(C(=O)Nc2ccccc2)c1 [Compound 3617] | – | – | EC50 [1]: 0.01 to 10 nM
12 | COC(=O)[C@H](CCNC(=O)C(=O)NC1CCC(S(C)(=O)=O)CC1)NC(=O)c1ccc(Nc2nc(NC3(c4ccc(Cl)cc4)CC3)nc(OCC(F)(F)F)n2)cc1 (stereo partly shown) [Compound 3119] | – | 0.01 to 10 | –
13 | CCOCCOc1ccc(NC(=O)C(=O)NC[C@H](NC(=O)c2ccc(Nc3nc(NC4(c5ccc(Cl)cc5)CC4)nc(OCC(F)(F)F)n3)cc2)C(=O)OC)cc1 [Compound 3192] | – | 0.01 to 10 | –
14 | COC(=O)[C@H](CCNC(=O)C(=O)Nc1ccc(-c2csc(N3CCOCC3)n2)cc1)NC(=O)c1ccc(Nc2nc(NC3(c4ccc(Cl)cc4)CC3)nc(OCC(F)(F)F)n2)cc1 [Compound 3318] | – | 0.01 to 10 | –
15 | CC(C)(CNC(=O)C(=O)Nc1ccc(-c2cccc(C(=O)O)c2)cc1)CNC(=O)c1ccc(Nc2nc(NC3(c4ccc(Cl)cc4)CC3)nc(OCC(F)(F)F)n2)cc1 [Compound 1543] | 0.01 to 10 | – | –
16 | CC(C)(CNC(=O)C(=O)NCc1ccc(F)cc1)CNC(=O)c1ccc(Nc2nc(NC3(c4ccc(Cl)cc4)CC3)nc(OCC(F)(F)F)n2)cc1F [Compound 3514] | – | 0.01 to 10 | –
17 | CC(CNC(=O)C(=O)NCC[C@H](NC(=O)c1ccc(Nc2nc(NC3(c4ccc(Cl)cc4)CC3)nc(OCC(F)(F)F)n2)cc1)C(=O)O)c1ccccc1 (stereo partly shown) [Compound 1327] | 0.01 to 10 | – | –

Row | Compound | EC50 [2] [nM] | EC50 [3] [nM] | further results
18 | CC(C)(CNC(=O)C(=O)Nc1cccc(C(=O)O)c1)CNC(=O)c1ccc(Nc2nc(NC3(c4ccc(Cl)cc4)CC3)nc(OCC(F)(F)F)n2)cc1 [Compound 1485] | 0.01 to 10 | – | –
19 | NC(=O)C(=O)NCCCNC(=O)c1ccc(Nc2nc(NC3(c4ccc(Cl)cc4)CC3)nc(OCC(F)(F)F)n2)cc1 [Compound 3342] | – | 0.01 to 10 | –
20 | COC(=O)[C@H](CNC(=O)C(=O)Nc1ccc(N2CCCC2)nc1)NC(=O)c1ccc(Nc2nc(NC3(c4ccc(Cl)cc4)CC3)nc(OCC(F)(F)F)n2)cc1 [Compound 3721] | – | – | EC50 [1]: 0.01 to 10 nM
21 | Cc1ccc(NC(=O)C(=O)NCC(C)(C)CNC(=O)c2ccc(Nc3nc(NC4(c5ccc(Cl)cc5)CC4)nc(OCc4ccc(C(C)(C)C)cc4)n3)cc2)cc1 [Compound 3841] | – | – | EC50 [1]: 0.01 to 10 nM
22 | CC(C)(CNC(=O)C(=O)Nc1ccc(-c2cscn2)cc1)CNC(=O)c1ccc(Nc2nc(NC3(c4ccc(Cl)cc4)CC3)nc(OCC(F)(F)F)n2)cc1 [Compound 1595] | 0.01 to 10 | – | –
23 | CC1CC(NC(=O)C(=O)NC[C@H](NC(=O)c2ccc(Nc3nc(NC4(c5ccc(Cl)cc5)CC4)nc(OCC(F)(F)F)n3)cc2)C(=O)O)CC(C)(C)C1 (stereo partly shown) [Compound 1088] | 0.01 to 10 | – | –
24 | O=C(NC[C@H](NC(=O)c1ccc(Nc2nc(NC3(c4ccc(Cl)cc4)CC3)nc(OCC(F)(F)F)n2)cc1)C(=O)O)C(=O)Nc1ccc(-c2ncco2)cc1 [Compound 3292] | – | 0.01 to 10 | –
25 | Cc1ccc(-c2ccc(NC(=O)C(=O)NCCC(NC(=O)c3ccc(Nc4nc(NC5(c6ccc(Cl)cc6)CC5)nc(OCC(F)(F)F)n4)cc3)C(=O)O)cc2)cc1 (stereo not shown) [Compound 3526] | – | 0.01 to 10 | –
26 | Cc1nc(-c2ccc(NC(=O)C(=O)NC[C@H](NC(=O)c3ccc(Nc4nc(NC5(c6ccc(Cl)cc6)CC5)nc(OCC(F)(F)F)n4)cc3)C(=O)O)cc2)cs1 [Compound 3275] | – | 0.01 to 10 | –
27 | CC(C)(CNC(=O)C(=O)NCc1ccc(F)cc1F)CNC(=O)c1ccc(Nc2nc(NC3(c4ccc(Cl)cc4)CC3)nc(OCC(F)(F)F)n2)cc1 [Compound 1034, N1-(3-(4-(4-(1-(4-chlorophenyl)cyclopropylamino)-6-(2,2,2-trifluoroethoxy)-1,3,5-triazin-2-ylamino)benzamido)-2,2-dimethylpropyl)-N2-(2,4-difluorobenzyl)oxalamide] | 0.01 to 10 | – | –
28 | O=C(NCC[C@H](NC(=O)c1ccc(Nc2nc(NC3(c4ccc(Cl)cc4)CC3)nc(OCC(F)(F)F)n2)cc1)C(=O)O)C(=O)Nc1cc(F)cc(F)c1 [Compound 1507] | 0.01 to 10 | – | –
29 | CC(O)(CNC(=O)C(N)=O)CNC(=O)c1ccc(Nc2nc(NC3(c4ccc(Cl)cc4)CC3)nc(OCC(F)(F)F)n2)cc1 (stereo not shown) [Compound 3834] | – | – | EC50 (Huh-7, 48 h, HCV pseudoparticles, Huh7 cells, luciferase 2 days after infection, average of duplicates): 0.086 nM; EC50 [1]: 0.01 to 10 nM
30 | COCC(NC(=O)C(=O)NCC[C@H](NC(=O)c1ccc(Nc2nc(NC3(c4ccc(Cl)cc4)CC3)nc(OCC(F)(F)F)n2)cc1)C(=O)O)C1CC1 (stereo partly shown) [Compound 1441] | 0.01 to 10 | – | –
31 | COC(=O)[C@H](CNC(=O)C(=O)Nc1cn[nH]c1)NC(=O)c1ccc(Nc2nc(NC3(c4ccc(Cl)cc4)CC3)nc(OCC(F)(F)F)n2)cc1 [Compound 1246] | 0.01 to 10 | – | –
32 | CC(C)(CNC(=O)C(=O)Nc1ccc(Cl)c(Cl)c1)CNC(=O)c1ccc(Nc2nc(NC3(c4ccc(Cl)cc4)CC3)nc(OCC(F)(F)F)n2)cc1 [Compound 3793] | – | – | EC50 [1]: 0.01 to 10 nM
33 | COC(=O)[C@@H](CCNC(=O)C(=O)NCC1(c2ccccc2)CC1)NC(=O)c1ccc(Nc2nc(NC3(c4ccc(Cl)cc4)CC3)nc(OCC(F)(F)F)n2)cc1 [Compound 1378] | 0.01 to 10 | – | EC50 (Huh-7, 48 h, HCV pseudoparticle infection of Huh7 cells, luciferase 2 days after infection, average of duplicates): 0.23 nM
34 | O=C(NCC[C@@H](NC(=O)c1ccc(Nc2nc(NC3(c4ccc(Cl)cc4)CC3)nc(OCC(F)(F)F)n2)cc1)C(=O)O)C(=O)Nc1ccc(-c2ccccc2)cc1 [Compound 1557] | 0.01 to 10 | – | –
